Results published in ChEMBL document CHEMBL4818987, “Recent advances of podophyllotoxin/epipodophyllotoxin hybrids in anticancer activity, mode of action, and structure-activity relationship: An update (2010-2020)” (Eur J Med Chem, 2020).

How the values were obtained:
[1] = biological target: Prostaglandin G/H synthase 2 (Mus musculus, UniProt Q05769); test: Inhibition of mouse COX2
[2] = biological target: Prostaglandin G/H synthase 2 (Mus musculus, UniProt Q05769, V509I); test: Inhibition of mouse COX2 V523I mutant
Sequence of Prostaglandin G/H synthase 2 (Mus musculus, UniProt Q05769, V509I) (Q05769 18-604 V509I limits assumed): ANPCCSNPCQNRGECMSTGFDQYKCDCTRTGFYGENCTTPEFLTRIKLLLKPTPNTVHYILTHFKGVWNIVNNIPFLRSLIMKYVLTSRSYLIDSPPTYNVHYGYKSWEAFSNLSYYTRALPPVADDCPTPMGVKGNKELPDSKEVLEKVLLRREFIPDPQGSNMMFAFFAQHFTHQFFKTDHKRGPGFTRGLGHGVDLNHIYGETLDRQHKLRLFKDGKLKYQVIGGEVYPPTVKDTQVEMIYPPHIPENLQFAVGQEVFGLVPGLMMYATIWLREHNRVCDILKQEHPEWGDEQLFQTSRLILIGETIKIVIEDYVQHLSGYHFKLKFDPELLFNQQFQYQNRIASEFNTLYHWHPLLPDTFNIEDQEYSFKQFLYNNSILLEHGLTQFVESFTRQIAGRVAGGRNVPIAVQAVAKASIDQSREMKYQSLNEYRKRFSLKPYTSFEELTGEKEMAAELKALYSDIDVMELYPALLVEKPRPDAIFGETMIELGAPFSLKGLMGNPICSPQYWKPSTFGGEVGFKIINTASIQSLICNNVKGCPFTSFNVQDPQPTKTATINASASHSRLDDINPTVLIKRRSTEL

[3] = biological target: Prostaglandin G/H synthase 2 (Mus musculus, UniProt Q05769, S516A); test: Inhibition of mouse COX2 S530A mutant
Sequence of Prostaglandin G/H synthase 2 (Mus musculus, UniProt Q05769, S516A) (Q05769 18-604 S516A limits assumed): as the sequence (Q05769 18-604 V509I limits assumed) above, with I492V, S499A counted along it

[4] = biological target: Prostaglandin G/H synthase 2 (Mus musculus, UniProt Q05769, R106Q); test: Inhibition of mouse COX2 R120Q mutant
Sequence of Prostaglandin G/H synthase 2 (Mus musculus, UniProt Q05769, R106Q) (Q05769 18-604 R106Q limits assumed): as the sequence (Q05769 18-604 V509I limits assumed) above, with R89Q, I492V counted along it

RKO = test: Antiproliferative activity against human RKO cells incubated for 48 hrs by CCK8 assay; type: functional, cell-based
HCT-116 [5] = test: Antiproliferative activity against human HCT116 cells incubated for 48 hrs by CCK8 assay; type: functional, cell-based; conditions: HCT-116, 48 h
MDA-MB-231 = test: Antiproliferative activity against human MDA-MB-231 cells incubated for 48 hrs by CCK8 assay; type: functional, cell-based; conditions: MDA-MB-231, 48 h
[6] = Antiproliferative activity against human HCA7 cells incubated for 48 hrs by CCK8 assay; type: functional, cell-based; conditions: HCA-7, 48 h
IMR-5 = test: Antiproliferative activity against human IMR5 cells incubated for 48 hrs by CCK8 assay; type: functional, cell-based; conditions: IMR-5, 48 h
NCI-H292 = test: Antiproliferative activity against human NCI-H292 cells incubated for 48 hrs by CCK8 assay; type: functional, cell-based; conditions: NCI-H292, 48 h
RAW264.7 = test: Antiproliferative activity against mouse RAW264.7 cells incubated for 48 hrs by CCK8 assay; type: functional, cell-based; conditions: RAW264.7, 48 h
[7] = Antitumor activity against human HNSCC-1483 cells xenografted in mouse assessed as reduction in tumor growth at 2 mg/kg administered for 14 days and measured on day 2 to day 15 by electronic caliper method relative to control; type: functional; conditions: MDA-1483, 336 h, time 14 day, read-out: TGI
K562 [8] = test: Antiproliferative activity against human K562 cells incubated for 72 hrs by CCK8 method; type: functional, cell-based; conditions: K562, 72 h
K562/VCR [9] = test: Antiproliferative activity against human K562/VCR cells incubated for 72 hrs by CCK8 method; type: functional, cell-based
K562/Adr [10] = test: Antiproliferative activity against human K562/ADR cells incubated for 72 hrs by CCK8 method; type: functional, cell-based
K562/VCR [11] = test: Potency index, ratio of etoposide IC50 to compound IC50 for antiproliferative activity against human K562/VCR cells; type: functional
K562/VCR [12] = test: Potency index, ratio of vincristine IC50 to compound IC50 for antiproliferative activity against human K562/VCR cells; type: functional
HeLa [13] = test: Potency index, ratio of etoposide IC50 to test compound IC50 for antiproliferative activity against human HeLa cells; type: functional
A549 [14] = test: Potency index, ratio of etoposide IC50 to test compound IC50 for antiproliferative activity against human A549 cells; type: functional
MCF7 [15] = test: Potency index, ratio of etoposide IC50 to test compound IC50 for antiproliferative activity against human MCF7 cells; type: functional
HepG2 [16] = test: Potency index, ratio of etoposide IC50 to test compound IC50 for antiproliferative activity against human HepG2 cells; type: functional
SK-OV-3 [17] = test: Potency index, ratio of etoposide IC50 to test compound IC50 for antiproliferative activity against human SK-OV-3 cells; type: functional
BGC-823 [18] = test: Potency index, ratio of etoposide IC50 to test compound IC50 for antiproliferative activity against human BGC-823 cells; type: functional
MGC-803 [19] = test: Potency index, ratio of etoposide IC50 to test compound IC50 for antiproliferative activity against human MGC-803 cells; type: functional
K562 [20] = test: Potency index, ratio of etoposide IC50 to test compound IC50 for antiproliferative activity against human K562 cells; type: functional
K562/A02 [21] = test: Potency index, ratio of etoposide IC50 to test compound IC50 for antiproliferative activity against human K562/A02 cells; type: functional
B16 = test: Antiproliferative activity against […] cells incubated for 48 to 72 hrs by MTT assay; type: functional, cell-based; conditions: Mus musculus
NCI-H1993 = test: Antiproliferative activity against human NCI-H1993 cells incubated for 48 to 72 hrs by MTT assay; type: functional, cell-based
MKN-45 [22] = test: Antiproliferative activity against human MKN-45 cells incubated for 48 to 72 hrs by MTT assay; type: functional, cell-based
HepG2 [23] = test: Antiproliferative activity against human HepG2 cells incubated for 48 to 72 hrs by MTT assay; type: functional, cell-based
K562 [24] = test: Antiproliferative activity against human K562 cells incubated for 72 hrs by CCK8 assay; type: functional, cell-based; conditions: K562, 72 h
MKN-45 [25] = test: Antiproliferative activity against human MKN-45 cells incubated for 72 hrs by MTT assay; type: functional, cell-based; conditions: time 72 hrs
HeLa [26] = test: Antiproliferative activity against human HeLa cells incubated for 48 hrs by MTT assay; type: functional, cell-based
K562 [27] = test: Antiproliferative activity against human K562 cells incubated for 48 hrs by MTT assay; type: functional, cell-based; conditions: K562, 48 h
A549 [28] = test: Antiproliferative activity against human A549 cells incubated for 48 hrs by MTT assay; type: functional, cell-based; conditions: A549, 48 h
MCF7 [29] = test: Antiproliferative activity against human MCF7 cells incubated for 48 hrs by MTT assay; type: functional, cell-based; conditions: MCF7, 48 h
HepG2 [30] = test: Antiproliferative activity against human HepG2 cells incubated for 48 hrs by MTT assay; type: functional, cell-based; conditions: HepG2, 48 h
SK-OV-3 [31] = test: Antiproliferative activity against human SKOV3 cells incubated for 48 hrs by MTT assay; type: functional, cell-based; conditions: SK-OV-3, 48 h
BGC-823 [32] = test: Antiproliferative activity against human BGC-823 cells incubated for 48 hrs by MTT assay; type: functional, cell-based; conditions: BGC-823, 48 h
MGC-803 [33] = test: Antiproliferative activity against human MGC-803 cells incubated for 48 hrs by MTT assay; type: functional, cell-based; conditions: MGC-803, 48 h
SW480 = test: Antiproliferative activity against human SW480 cells incubated for 48 hrs by MTT assay; type: functional, cell-based; conditions: SW480, 48 h
SMMC-7721 = test: Antiproliferative activity against human SMMC-7721 cells incubated for 48 hrs by MTT assay; type: functional, cell-based; conditions: SMMC-7721, 48 h
HL-60 = test: Antiproliferative activity against human HL-60 cells incubated for 48 hrs by MTT assay; type: functional, cell-based; conditions: HL-60, 48 h
HeLa [34] = test: Antiproliferative activity against human HeLa cells by MTT assay; type: functional, cell-based
K562/A02 [35] = test: Antiproliferative activity against human K562/A02 cells by MTT assay; type: functional, cell-based
K562 [36] = test: Antiproliferative activity against human K562 cells by MTT assay; type: functional, cell-based
K562 [37] = test: Cytotoxicity against human K562 cells by SRB assay; type: functional, cell-based
K562/A02 [38] = test: Cytotoxicity against human K562/A02 cells by SRB assay; type: functional, cell-based
HOS = test: Cytotoxicity against human HOS cells by MTT assay; type: functional
LoVo = test: Cytotoxicity against human LoVo cells by MTT assay; type: functional, cell-based
MCF7 [39] = test: Cytotoxicity against human MCF7 cells by MTT assay; type: functional, cell-based
HeLa [40] = test: Cytotoxicity against human HeLa cells by MTT assay; type: functional, cell-based
KB [41] = test: Cytotoxicity against human KB cells by MTT assay; type: functional, cell-based
[42] = Cytotoxicity against human KBv200 cells by MTT assay; type: functional, cell-based; conditions: KBv200, Uterine cervix
K562/Adr [43] = test: Antiproliferative activity against human K562/ADR cells incubated for 72 hrs by CCK8 assay; type: functional, cell-based
BGC-823 [44] = test: Antiproliferative activity against human BGC-823 cells incubated for 72 hrs by MTT assay; type: functional, cell-based; conditions: BGC-823, 72 h
KB [45] = test: Cytotoxicity against human KB cells incubated for 72 hrs by SRB method; type: functional, cell-based
KB [46] = test: Cytotoxicity against human Vincristine-resistant KB cells incubated for 72 hrs by SRB method; type: functional, cell-based
[47] = Mean initial plasma concentration in Sprague-Dawley rat at 2.5 mg/kg, iv measured after 5 to 1440 mins by LC-MS/MS analysis; type: ADME, organism-based; conditions: Rattus norvegicus
[48] = AUCinfinity in Sprague-Dawley rat at 2.5 mg/kg, iv measured after 5 to 1440 mins by LC-MS/MS analysis; type: ADME, organism-based; set-up: route intravenous, dose 2.5 mg/kg, time upper 1440 min, time lower 5 min; conditions: in vivo, time 5-1440 min, dose 2.5 mg/kg
[49] = Plasma clearance in Sprague-Dawley rat at 2.5 mg/kg, iv measured after 5 to 1440 mins by LC-MS/MS analysis; type: ADME, organism-based; set-up: dose 2.5 mg/kg, time upper 1440 min, time lower 5 min; conditions: 2.5 mg/kg
HCT-116 [50] = test: Antiproliferative activity against human HCT116 cells incubated for 3 days by MTT assay; type: functional, cell-based; conditions: HCT-116, 72 h
A549 [51] = test: Antiproliferative activity against human A549 cells incubated for 3 days by MTT assay; type: functional, cell-based; conditions: A549, 72 h

Sequence of Prostaglandin G/H synthase 2 (Mus musculus, UniProt Q05769) (Q05769 whole entry): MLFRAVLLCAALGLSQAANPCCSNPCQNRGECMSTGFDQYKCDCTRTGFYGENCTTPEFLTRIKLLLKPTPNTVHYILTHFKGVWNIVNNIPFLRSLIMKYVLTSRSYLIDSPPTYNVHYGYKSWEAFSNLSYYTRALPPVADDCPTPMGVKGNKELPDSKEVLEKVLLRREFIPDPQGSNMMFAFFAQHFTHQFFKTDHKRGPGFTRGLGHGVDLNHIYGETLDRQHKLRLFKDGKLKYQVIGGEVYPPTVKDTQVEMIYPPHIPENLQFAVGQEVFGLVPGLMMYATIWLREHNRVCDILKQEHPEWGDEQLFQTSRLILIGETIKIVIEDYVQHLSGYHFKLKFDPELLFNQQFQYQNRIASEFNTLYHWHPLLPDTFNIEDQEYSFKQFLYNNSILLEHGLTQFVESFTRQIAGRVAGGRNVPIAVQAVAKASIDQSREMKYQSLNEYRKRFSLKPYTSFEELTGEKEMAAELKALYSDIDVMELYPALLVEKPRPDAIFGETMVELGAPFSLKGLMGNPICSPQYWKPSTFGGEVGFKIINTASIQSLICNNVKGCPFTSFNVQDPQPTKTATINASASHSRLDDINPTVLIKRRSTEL

COc1ccc2c(c1)c(CC(=O)NCCCCNC(=O)CCC(=O)O[C@H]1c3cc4c(cc3[C@@H](c3cc(OC)c(OC)c(OC)c3)[C@H]3C(=O)OC[C@@H]31)OCO4)c(C)n2C(=O)c1ccc(Cl)cc1
IC50 [1]: 90 nM
IC50 [2]: 90 nM
IC50 [3]: 90 nM
IC50 [4]: 90 nM
IC50 (RKO): < 30 nM
IC50 (HCT-116 [5]): < 30 nM
IC50 (MDA-MB-231): < 30 nM
IC50 [6]: < 30 nM
IC50 (IMR-5): < 30 nM
IC50 (NCI-H292): < 30 nM
IC50 (RAW264.7): < 30 nM
inhibition in vivo at 2 mg/kg [7]: 50%

COc1cc([C@@H]2c3cc4c(cc3[C@H](OC(=O)c3nn(Cc5cc(Cl)cc(Cl)c5)c5ccccc35)[C@H]3COC(=O)[C@H]23)OCO4)cc(OC)c1OC
IC50 (K562 [8]): 423 nM
IC50 (K562/VCR [9]): 578 nM
IC50 (K562/Adr [10]): 560 nM
Ratio IC50 (K562/VCR [11]): 8.1
Ratio IC50 (K562/VCR [12]): 8.1

COc1cc([C@@H]2c3cc4c(cc3[C@@H](n3ccnc3)[C@H]3COC(=O)[C@H]23)OCO4)cc(OC)c1OC
Ratio IC50 (HeLa [13]): 5.8
Ratio IC50 (A549 [14]): 5.8
Ratio IC50 (MCF7 [15]): 5.8
Ratio IC50 (HepG2 [16]): 5.8
Ratio IC50 (SK-OV-3 [17]): 5.8
Ratio IC50 (BGC-823 [18]): 5.8
Ratio IC50 (MGC-803 [19]): 5.8
Ratio IC50 (K562 [20]): 5.8
Ratio IC50 (K562/A02 [21]): 5.8

COc1cc([C@@H]2c3cc4c(cc3[C@@H](O[C@@H]3O[C@@H]5CO[C@@H](C)O[C@H]5[C@H](O)[C@H]3O)[C@H]3COC(=O)[C@H]23)OCO4)cc(OC)c1O [ETOPOSIDE]
IC50 (B16): > 910 nM
IC50 (NCI-H1993): > 910 nM
IC50 (MKN-45 [22]): > 910 nM
IC50 (HepG2 [23]): > 910 nM
IC50 (K562 [24]): 3390 nM
Activity (MKN-45 [25]): 12.8%
IC50 (HeLa [26]): 8120 nM
IC50 (K562 [27]): 183 nM
IC50 (A549 [28]): 1060 nM
IC50 (MCF7 [29]): 310 nM
IC50 (HepG2 [30]): 310 nM
IC50 (SK-OV-3 [31]): 14800 nM
IC50 (BGC-823 [32]): 1060 nM
IC50 (MGC-803 [33]): 1060 nM
IC50 (K562 [8]): 1060 nM
IC50 (SW480): 764 nM
IC50 (SMMC-7721): 310 nM
IC50 (HL-60): 310 nM
IC50 (HeLa [34]): 310 nM
IC50 (K562/A02 [35]): 1980 nM
IC50 (K562 [36]): 22800 nM
IC50 (K562 [37]): 1980 nM
GI50 (K562/A02 [38]): 1080 nM
GI50 (HOS): 36600 nM
IC50 (LoVo): 1710 nM
IC50 (MCF7 [39]): 1710 nM
IC50 (HeLa [40]): 1710 nM
IC50 (KB [41]): 1710 nM
IC50 [42]: 1710 nM
IC50 (K562/Adr [43]): 413 nM
IC50 (BGC-823 [44]): 2880 nM
IC50 (KB [45]): 1740 nM
IC50 (KB [46]): 2270 nM
C0 [47]: 16.8 µM
AUC [48]: 3180 ng·h/mL
AUC [49]: 933 ng·h/mL
IC50 (HCT-116 [50]): 4900 nM
IC50 (A549 [51]): 4900 nM
